Assay results published in patent publication US9675592B2, “Methods and compositions for bacteria infections” (priority 2013, dated 2017).
Values after ≈ are worked out from the molar mass of the structure shown. Values joined by “and” are separate entries in the source; they are usually repeats but may differ in a detail not shown here. Equal entries are not always repeated. Where two headings read alike, the source gives them in different places.

Columns and labels:
VraR = VraR (Staphylococcus aureus, UniProt Q7A4R9); test: biochemical; format: binding; details: for Kd / RUmax VraR: His-tagged VraR; for Kd: NB = No Binding; for binding to VraR: SPR
VraR, sequence (Q7A4R9 whole entry, the tested form may be a part): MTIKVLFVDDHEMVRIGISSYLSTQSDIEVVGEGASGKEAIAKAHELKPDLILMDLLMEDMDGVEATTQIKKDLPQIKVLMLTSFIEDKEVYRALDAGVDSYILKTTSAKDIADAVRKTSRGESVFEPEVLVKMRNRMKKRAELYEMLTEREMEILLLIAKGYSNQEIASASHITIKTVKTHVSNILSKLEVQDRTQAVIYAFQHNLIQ

[1] = target: cytoplasmic domain of VraS (VraS-C) (Staphylococcus aureus, UniProt Q99SZ7); test: biochemical; format: binding
cytoplasmic domain of VraS (VraS-C), sequence (Q99SZ7 70-347): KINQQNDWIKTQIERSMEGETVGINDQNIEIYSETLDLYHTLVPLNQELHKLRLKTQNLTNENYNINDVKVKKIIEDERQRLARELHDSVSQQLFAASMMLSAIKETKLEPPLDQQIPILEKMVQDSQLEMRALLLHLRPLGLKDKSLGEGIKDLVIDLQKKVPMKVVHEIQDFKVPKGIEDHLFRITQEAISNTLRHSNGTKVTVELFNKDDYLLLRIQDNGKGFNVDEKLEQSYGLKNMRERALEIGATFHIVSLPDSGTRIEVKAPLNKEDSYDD

[2] = target: PurC (unrelated protein, control) (Bacillus anthracis, UniProt Q81ZH5); format: binding; details: read-out: KD PurC (control)
PurC (unrelated protein, control), sequence (Q81ZH5 whole entry, looked up): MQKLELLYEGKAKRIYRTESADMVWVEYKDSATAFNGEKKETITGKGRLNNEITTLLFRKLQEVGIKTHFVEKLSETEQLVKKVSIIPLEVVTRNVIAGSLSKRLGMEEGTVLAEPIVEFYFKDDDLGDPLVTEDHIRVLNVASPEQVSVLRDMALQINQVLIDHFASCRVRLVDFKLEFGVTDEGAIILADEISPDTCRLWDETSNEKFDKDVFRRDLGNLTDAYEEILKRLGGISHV

[3] = tested on: hetero VISA isolate, hVISA 2275; details: cited from earlier work
[4] = tested on: vancomycin intermediate resistant Staphylococcus aureus strain, VISA 2283; details: cited from earlier work; for MIC Van: vancomycin alone
[5] = tested on: vanA containing VRSA strain VRS2; details: cited from earlier work
[6] = tested on: vanA containing VRSA strain VRS1; details: cited from earlier work
[7] = tested on: vraSR promoter (Pvra-lux reporter in strain 923); test: Primary screen, relative luminescence (vraSR expression)
[8] = tested on: test strain 923 pPvra-lux (USA300 MRSA); test: Primary screen, relative growth in presence of oxacillin; details: compound 10 μM with oxacillin 2 μg/mL, absorbance 24 h, <0.50 = dead cells = hit
[9] = tested on: test strain 923 pPvra-lux; test: Secondary screen / synergy confirmation of Top 40, relative growth with oxacillin; format: cell-based, Staphylococcus aureus; details: Top 40 library, compound at maximum non-GI conc
Description: In the secondary screen each microtiter plate contained either cells in TSB alone (16 replicates), cells with oxacillin (2 μg/mL, 31 replicates), or cells with test compound and oxacillin (2 μg/mL, 49 wells). Each compound was assayed in four separate biological replicates.
Synergy Confirmation of “Top 40”. […]

[10] = tested on: vraSR promoter (Pvra-lux reporter in strain 923); format: cell-based, Staphylococcus aureus
Description: In the secondary screen each microtiter plate contained either cells in TSB alone (16 replicates), cells with oxacillin (2 μg/mL, 31 replicates), or cells with test compound and oxacillin (2 μg/mL, 49 wells). Each compound was assayed in four separate biological replicates. […]

multiple strains of MRSA = test: MICs (minimal inhibitory concentrations) vs multiple strains of MRSA; format: cell-based, Staphylococcus aureus; details: compound at 0.25 mg/L
[11] = tested on: test strain (923 pPvra-lux); test: Growth inhibition by compound alone (maximum non-growth-inhibitory concentration); format: cell-based, Staphylococcus aureus; details: compound alone; maximum concentration where it did NOT inhibit growth
[12] = new run with His-tagged VraS, NB = No Binding, read-out: KD VraS

## Cc1ccc(-c2nnc(NC(=O)c3ccccc3Cl)o2)c(C)c1 [F2518-0150]
VraR
  Kd: > 100 µM
[1]; [12]
  Kd: > 100 µM
[2]
  Kd: > 100 µM

## Cc1ccc(-c2nnc(NC(=O)c3nc4ccccc4s3)o2)c(C)c1 [F2518-0183]
VraR
  Kd: > 100 µM
[1]; [12]
  Kd: > 100 µM
[2]
  Kd: > 100 µM

## Cc1ccc(C)c(-c2nnc(NC(=O)c3cc(Cl)sc3Cl)o2)c1 [F2518-0360]
VraR
  Kd: > 100 µM
[1]; [12]
  Kd: > 100 µM
[2]
  Kd: > 100 µM

## CCN(CC)CCOc1ccc(C(=C(Cl)c2ccccc2)c2ccccc2)cc1 [Clo, Clomiphene]
[3]; compound alone, hVISA 2275
  MIC compound (Clo, Pyr, Gos): 12 mg/L (≈ 29.6 µM)
[3]; hVISA 2275
  Synergy category: partial (partially potentiated vancomycin (FIC i>0.5 and <1.0))
[3]; hVISA
  potentiation of vancomycin: partially potentiated
[4]; MIC of the compound in combination with the indicated Van concentration, VISA 2283
  MIC (in combination) Clo+, Pyr+, Gos+: 3 mg/L
[4]; VISA 2283
  FICi V + compound: 0.75
  Synergy category: partial (partially potentiated vancomycin (FIC i>0.5 and <1.0))
[4]; VISA
  potentiation of vancomycin: partially potentiated
[4]; compound alone, VISA 2283
  MIC compound (Clo, Pyr, Gos): 12 mg/L (≈ 29.6 µM)
[4]; in combination with compound, VISA 2283
  Van FIC: 0.5
[4]; in combination with vancomycin, VISA 2283
  Clo FIC, Pyr FIC, Gos FIC: 0.25
[4]; vancomycin MIC when used in combination with compound, VISA 2283
  MIC (in combination) Van+: 4 mg/L
[5]
  potentiation of vancomycin: fully potentiated
[5]; compound alone
  MIC compound (Clo, Pyr, Gos): 12 mg/L (≈ 29.6 µM)
[6]
  FICi V + compound: 0.75
  Synergy category: partial (partially potentiated vancomycin (FIC i>0.5 and <1.0))
  potentiation of vancomycin: partially potentiated
[6]; compound alone
  MIC compound (Clo, Pyr, Gos): 12 mg/L (≈ 29.6 µM)

## O=C(Nc1nnc(-c2ccc(F)cc2)o1)c1nc2ccccc2s1 [F1374-0138]
VraR
  Kd: > 100 µM
[1]; [12]
  Kd: > 100 µM
[2]
  Kd: > 100 µM

## O=C(Nc1nnc(-c2ccc(Br)cc2)o1)c1sc2ccccc2c1Cl [F2518-0484]
VraR
  Kd: > 100 µM
[1]; [12]
  Kd: > 100 µM
[2]
  Kd: > 100 µM

## O=C(Nc1nnc(-c2ccccc2Cl)o1)c1cccc(Oc2ccccc2)c1 [F1374-0081]
VraR
  Kd: > 100 µM
[1]; [12]
  Kd: > 100 µM
[2]
  Kd: > 100 µM

## O=C(Nc1nnc(-c2ccc(F)cc2)o1)c1cccc(Br)c1 [F1374-0119]
VraR
  Kd: > 100 µM
[1]; [12]
  Kd: > 100 µM
[2]
  Kd: > 100 µM

## O=C(Nc1nnc(-c2ccc(Br)cc2)o1)c1ccc(Cl)s1 [F2518-0474]
[7]
  RL avg (relative luminescence): −0.01
VraR
  RUmax VraR: 27.5 ± 2.4
  Kd: 22.2 ± 5.4 µM
[8]
  RG avg (relative growth): 0.01
[1]; SPR
  binding to VraS-C: bound
[1]; new run with His-tagged VraS
  RUmax VraS: 52.9 ± 12.8
[1]; [12]
  Kd: 79.5 ± 34.6 µM
[2]
  Kd: > 100 µM

## O=C(Nc1nnc(-c2ccc3c(c2)CCCC3)o1)c1cccc(C(F)(F)F)c1 [F0608-0575]
VraR
  Kd: > 100 µM
[1]; [12]
  Kd: > 100 µM
[2]
  Kd: > 100 µM

## CSc1cccc(-c2nnc(NC(=O)c3nc4ccccc4s3)o2)c1 [F2645-0188]
[9]
  RG Ox avg: 0.03
[7]; primary screen, compound 10 μM with oxacillin 2 μg/mL, <0.50 = vraSR repressed = hit
  RL avg (relative luminescence): 0.37
VraR
  Kd: > 100 µM
[8]
  RG avg (relative growth): 0.03
[1]; His-tagged VraS-C, SPR, read-out: KD
  Kd: 56.1 ± 16.3 µM
[1]; SPR
  binding to VraS-C: Binds
[1]; new run with His-tagged VraS
  RUmax VraS: (74.1 ± 10.7)
[1]; previous run with untagged VraS
  RUmax VraS: 325 ± 33
[1]; untagged VraS-C protein, SPR, read-out: KD
  Kd: 13.2 ± 3.2 µM
[2]
  Kd: > 100 µM
[10]; Top 40 library, with oxacillin, compound at maximum non-GI conc
  RL Ox avg: 0.05
[10]; overall class from syn and rep
  vraSR repressing synergist: 1. confirmed
Multiple strains of MRSA; isolate 923, SCCmec IV, ST 8
  Ox MIC in presence of compound: 2 mg/L
Multiple strains of MRSA; isolate 1176, SCCmec II, ST 231
  Ox MIC in presence of compound: <0.5 mg/L
Multiple strains of MRSA; isolate 2169, SCCmec IV, ST 72
  Ox MIC in presence of compound: 0.5 mg/L
Multiple strains of MRSA; isolate 8004-01, SCCmec III, ST 239
  Ox MIC in presence of compound: 64 mg/L
Multiple strains of MRSA; isolate 8010-01, SCCmec IV, ST 8
  Ox MIC in presence of compound: 0.5 mg/L
Multiple strains of MRSA; isolate 8227-01, SCCmec IV, ST 87
  Ox MIC in presence of compound: 0.5 mg/L
Multiple strains of MRSA; isolate 11095, SCCmec II, ST 105
  Ox MIC in presence of compound: 32 mg/L
Multiple strains of MRSA; isolate 13113, SCCmec II, ST 5
  Ox MIC in presence of compound: <0.13 mg/L
Multiple strains of MRSA; isolate 13354, SCCmec IV, ST 5
  Ox MIC in presence of compound: <0.13 mg/L
Multiple strains of MRSA; isolate 14315, SCCmec IV, ST 1
  Ox MIC in presence of compound: <0.5 mg/L
Multiple strains of MRSA; isolate Q2461, SCCmec VT, ST 59
  Ox MIC in presence of compound: 0.25 mg/L
[11]
  maximum non-GI conc: 40 µg/mL

## O=C(Nc1nnc(-c2ccccc2Cl)o1)c1nc2ccccc2s1 [F1374-0033]
VraR
  Kd: > 100 µM
[1]; SPR
  binding to VraS-C: bound
[1]; new run with His-tagged VraS
  RUmax VraS: 64.3 ± 5.4
[1]; [12]
  Kd: 19.6 ± 4.4 µM
[2]
  Kd: > 100 µM

## COc1cccc(-c2nnc(NC(=O)c3ccc(Cl)s3)o2)c1 [F1374-0351]
VraR
  Kd: > 100 µM
[1]; [12]
  Kd: > 100 µM
[2]
  Kd: > 100 µM

## O=C(Nc1nnc(-c2cc(Cl)ccc2Cl)o1)c1ccc(Cl)s1 [F2518-0042]
VraR
  Kd: > 100 µM
[1]; [12]
  Kd: > 100 µM
[2]
  Kd: > 100 µM

## Cc1ccc(C)c(-c2nnc(NC(=O)c3ccccc3F)o2)c1 [F2518-0382]
VraR
  Kd: > 100 µM
[1]; [12]
  Kd: > 100 µM
[2]
  Kd: > 100 µM

## CS(=O)(=O)c1ccc(-c2nnc(NC(=O)c3ccc(Cl)s3)o2)cc1 [F2645-0790]
VraR
  Kd: > 100 µM
[1]; [12]
  Kd: > 100 µM
[2]
  Kd: > 100 µM

## O=C(Nc1nnc(-c2ccc(Br)cc2)o1)c1cccc(C(F)(F)F)c1 [F2518-0477]
VraR
  Kd: > 100 µM
[1]; [12]
  Kd: > 100 µM
[2]
  Kd: > 100 µM

## Cc1ccc(C)c(-c2nnc(NC(=O)c3nc4ccccc4s3)o2)c1 [F2518-0327]
VraR
  RUmax VraR: 46.5 ± 2.9
  Kd: 15.4 ± 6.4 µM
  binding to VraR: bound
[1]; [12]
  Kd: > 100 µM
[2]
  Kd: > 100 µM

## CN[C@H](CC(C)C)C(=O)N[C@H]1C(=O)N[C@@H](CC(N)=O)C(=O)N[C@H]2C(=O)N[C@H]3C(=O)N[C@H](C(=O)N[C@H](C(=O)O)c4cc(O)cc(O)c4-c4cc3ccc4O)[C@H](O)c3ccc(c(Cl)c3)Oc3cc2cc(c3O[C@@H]2O[C@H](CO)[C@@H](O)[C@H](O)[C@H]2O[C@H]2C[C@](C)(N)[C@H](O)[C@H](C)O2)Oc2ccc(cc2Cl)[C@H]1O [Van, Vancomycin]
[3]; vancomycin alone, hVISA 2275
  MIC Van: 4 mg/L (≈ 2.76 µM)
[4]; VISA 2283
  MIC Van: 8 mg/L (≈ 5.52 µM)
[4]; VISA 2283, listed as vancomycin
  MIC Van: 16 mg/L and 8 mg/L
[5]; vancomycin alone
  MIC Van: 16 mg/L (≈ 11 µM)
[6]; vancomycin alone
  MIC Van: 1024 mg/L (≈ 707 µM)

## O=C(Nc1nnc(-c2cc(Cl)sc2Cl)o1)c1nc2ccccc2s1 [F1374-2739]
VraR
  RUmax VraR: 80.3 ± 8.8
  Kd: 54.4 ± 12.2 µM
  binding to VraR: bound
[1]; SPR
  binding to VraS-C: bound
[1]; new run with His-tagged VraS
  RUmax VraS: 69.1 ± 6.2
[1]; [12]
  Kd: 69.6 ± 11.6 µM
[2]
  Kd: > 100 µM

## Cc1cc2c(C(C)C)c(O)c(O)c(C=O)c2c(O)c1-c1c(C)cc2c(C(C)C)c(O)c(O)c(C=O)c2c1O [Gos, Gossypol, reference compound]
VraR
  Kd: > 100 µM
[1]; [12]
  Kd: > 100 µM

## O=C(Nc1nnc(-c2ccc3c(c2)CCCC3)o1)c1nc2ccccc2s1 [F0608-0570]
VraR
  Kd: > 100 µM
[1]; [12]
  Kd: > 100 µM
[2]
  Kd: > 100 µM

## O=C(Nc1nnc(-c2ccccc2Cl)o1)c1cccc(C(F)(F)F)c1 [F1374-0037]
[7]
  RL avg (relative luminescence): 0.35
VraR
  Kd: > 100 µM
[8]
  RG avg (relative growth): 0.02
[1]; SPR
  binding to VraS-C: bound
[1]; new run with His-tagged VraS
  RUmax VraS: 45.1 ± 3.2
[1]; [12]
  Kd: 25.8 ± 4.8 µM
[2]
  Kd: > 100 µM

## COc1cccc(-c2nnc(NC(=O)c3cccc(F)c3)o2)c1 [F1374-0327]
VraR
  Kd: > 100 µM
[1]; [12]
  Kd: > 100 µM
[2]
  Kd: > 100 µM
